Measured values: US11542240B2, “STK19 inhibitors for treatment of cancer” (TRUSTEES OF BOSTON UNIVERSITY, priority 2018, dated 2023)

What was measured:
Assay in all cases: biochemical
Type in all cases: binding
[1] = molecular target: panel of 468 diverse kinases (Homo sapiens, UniProt O00750); settings: PIK3C2B; 1000 nM; read-out: Percent Control
[2] = molecular target: panel of 468 diverse kinases (Homo sapiens, UniProt O60285); settings: ARK5; 1000 nM; read-out: Percent Control
[3] = molecular target: panel of 468 diverse kinases (Homo sapiens, UniProt O76039); settings: CDKL5; 1000 nM; read-out: Percent Control
[4] = molecular target: panel of 468 diverse kinases (Homo sapiens, UniProt O94768); settings: DRAK2; 1000 nM; read-out: Percent Control
[5] = molecular target: panel of 468 diverse kinases (Homo sapiens, UniProt O94921); settings: PFTK1; 1000 nM; read-out: Percent Control
[6] = molecular target: panel of 468 diverse kinases (Homo sapiens, UniProt P00533, DEL746-750); settings: EGFR(E746-A750del); 1000 nM; read-out: Percent Control
[7] = molecular target: panel of 468 diverse kinases (Homo sapiens, UniProt P00533, DEL752-759); settings: EGFR(S752-I759del); 1000 nM; read-out: Percent Control
[8] = molecular target: panel of 468 diverse kinases (Homo sapiens, UniProt P00533, L861Q); settings: EGFR(L861Q); 1000 nM; read-out: Percent Control
[9] = molecular target: panel of 468 diverse kinases (Homo sapiens, UniProt P07332); settings: FES; 1000 nM; read-out: Percent Control
[10] = molecular target: panel of 468 diverse kinases (Homo sapiens, UniProt P07947); settings: YES; 1000 nM; read-out: Percent Control
[11] = molecular target: panel of 468 diverse kinases (Homo sapiens, UniProt P07949, M918T); settings: RET(M918T); 1000 nM; read-out: Percent Control
[12] = molecular target: panel of 468 diverse kinases (Homo sapiens, UniProt P10721, T670I/V559D); settings: KIT(V559D,T670I); 1000 nM; read-out: Percent Control
[13] = molecular target: panel of 468 diverse kinases (Homo sapiens, UniProt P19525); settings: PRKR; 1000 nM; read-out: Percent Control
[14] = molecular target: panel of 468 diverse kinases (Homo sapiens, UniProt P30530); settings: AXL; 1000 nM; read-out: Percent Control
[15] = molecular target: panel of 468 diverse kinases (Homo sapiens, UniProt P31152); settings: ERK4; 1000 nM; read-out: Percent Control
[16] = molecular target: panel of 468 diverse kinases (Homo sapiens, UniProt P37173); settings: TGFBR2; 1000 nM; read-out: Percent Control
[17] = molecular target: panel of 468 diverse kinases (Homo sapiens, UniProt P42336); settings: PIK3CA; 1000 nM; read-out: Percent Control
[18] = molecular target: panel of 468 diverse kinases (Homo sapiens, UniProt P46734); settings: MEK3; 1000 nM; read-out: Percent Control
[19] = molecular target: panel of 468 diverse kinases (Homo sapiens, UniProt P48730); settings: CSNK1D; 1000 nM; read-out: Percent Control
[20] = molecular target: panel of 468 diverse kinases (Homo sapiens, UniProt P50613); settings: CDK7; 1000 nM; read-out: Percent Control
[21] = molecular target: panel of 468 diverse kinases (Homo sapiens, UniProt P51813); settings: BMX; 1000 nM; read-out: Percent Control
[22] = molecular target: panel of 468 diverse kinases (Homo sapiens, UniProt Q04759); settings: PRKCQ; 1000 nM; read-out: Percent Control
[23] = molecular target: panel of 468 diverse kinases (Homo sapiens, UniProt Q13627); settings: DYRKIV; 1000 nM; read-out: Percent Control
[24] = molecular target: panel of 468 diverse kinases (Homo sapiens, UniProt Q8NEB9); settings: VPS34; 1000 nM; read-out: Percent Control
[25] = molecular target: panel of 468 diverse kinases (Homo sapiens, UniProt Q8TDR2); settings: STK35; 1000 nM; read-out: Percent Control
[26] = molecular target: panel of 468 diverse kinases (Homo sapiens, UniProt Q96J92); settings: WNK4; 1000 nM; read-out: Percent Control
[27] = molecular target: panel of 468 diverse kinases (Homo sapiens, UniProt Q9BYT3); settings: STK33; 1000 nM; read-out: Percent Control
[28] = molecular target: panel of 468 diverse kinases (Homo sapiens, UniProt Q9P286); settings: PAK7; 1000 nM; read-out: Percent Control
[29] = molecular target: panel of 468 diverse kinases (Homo sapiens, UniProt Q9Y2I7); settings: PIKFYVE; 1000 nM; read-out: Percent Control
[30] = molecular target: panel of 468 diverse kinases (Homo sapiens, UniProt Q9Y2K2); settings: QSK; 1000 nM; read-out: Percent Control
[31] = molecular target: panel of 468 diverse kinases (Mycobacterium tuberculosis, UniProt P9WI81); settings: read-out: Percent Control

Chain of panel of 468 diverse kinases (Homo sapiens, UniProt P37173) (P37173 23-567 limits assumed): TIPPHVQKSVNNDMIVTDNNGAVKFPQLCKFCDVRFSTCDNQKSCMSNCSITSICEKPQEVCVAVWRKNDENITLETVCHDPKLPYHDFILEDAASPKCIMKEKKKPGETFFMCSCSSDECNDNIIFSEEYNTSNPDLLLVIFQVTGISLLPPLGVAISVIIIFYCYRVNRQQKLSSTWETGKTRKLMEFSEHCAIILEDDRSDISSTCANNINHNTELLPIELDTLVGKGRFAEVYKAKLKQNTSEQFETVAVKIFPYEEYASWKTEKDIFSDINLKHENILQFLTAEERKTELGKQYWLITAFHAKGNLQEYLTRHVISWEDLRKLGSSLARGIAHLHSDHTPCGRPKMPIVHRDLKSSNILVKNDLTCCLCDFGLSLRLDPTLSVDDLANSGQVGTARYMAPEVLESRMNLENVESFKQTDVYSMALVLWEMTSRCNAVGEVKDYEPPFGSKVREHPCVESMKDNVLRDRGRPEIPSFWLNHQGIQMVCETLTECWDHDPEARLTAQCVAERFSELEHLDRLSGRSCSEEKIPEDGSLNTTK
Chain of panel of 468 diverse kinases (Homo sapiens, UniProt P00533, DEL752-759) (P00533 with tags, fused parts or gaps DEL752-759 limits assumed): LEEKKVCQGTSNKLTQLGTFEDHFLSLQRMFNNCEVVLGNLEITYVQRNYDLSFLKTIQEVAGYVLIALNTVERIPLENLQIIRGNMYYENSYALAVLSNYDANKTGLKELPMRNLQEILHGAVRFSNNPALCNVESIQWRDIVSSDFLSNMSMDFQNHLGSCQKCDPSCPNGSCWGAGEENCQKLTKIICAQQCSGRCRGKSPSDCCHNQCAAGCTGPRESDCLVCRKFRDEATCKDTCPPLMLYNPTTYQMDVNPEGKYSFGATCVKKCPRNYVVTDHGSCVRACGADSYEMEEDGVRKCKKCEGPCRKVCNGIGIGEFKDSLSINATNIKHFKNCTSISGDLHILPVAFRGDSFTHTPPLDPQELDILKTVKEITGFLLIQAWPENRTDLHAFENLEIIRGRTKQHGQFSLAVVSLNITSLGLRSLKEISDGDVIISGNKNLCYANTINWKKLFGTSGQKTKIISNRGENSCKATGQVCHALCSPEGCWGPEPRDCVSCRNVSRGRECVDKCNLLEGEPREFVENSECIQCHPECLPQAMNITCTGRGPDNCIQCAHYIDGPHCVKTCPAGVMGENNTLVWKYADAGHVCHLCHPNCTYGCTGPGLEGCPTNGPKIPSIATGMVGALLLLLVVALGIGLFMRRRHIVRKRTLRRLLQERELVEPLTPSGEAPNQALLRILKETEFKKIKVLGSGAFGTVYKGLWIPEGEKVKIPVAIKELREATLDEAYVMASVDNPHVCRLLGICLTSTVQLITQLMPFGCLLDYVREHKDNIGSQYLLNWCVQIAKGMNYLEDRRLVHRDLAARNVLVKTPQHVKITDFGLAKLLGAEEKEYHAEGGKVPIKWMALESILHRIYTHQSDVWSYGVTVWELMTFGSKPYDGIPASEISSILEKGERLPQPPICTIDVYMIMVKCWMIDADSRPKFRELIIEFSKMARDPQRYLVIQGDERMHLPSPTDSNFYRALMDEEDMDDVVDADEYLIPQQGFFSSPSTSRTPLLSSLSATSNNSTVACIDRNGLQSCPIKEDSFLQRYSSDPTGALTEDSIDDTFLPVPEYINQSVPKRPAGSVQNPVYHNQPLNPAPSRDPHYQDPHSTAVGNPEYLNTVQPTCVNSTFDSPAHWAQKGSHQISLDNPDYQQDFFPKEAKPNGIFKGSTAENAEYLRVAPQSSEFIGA
Chain of panel of 468 diverse kinases (Homo sapiens, UniProt P07949, M918T) (P07949 29-1114 M918T limits assumed): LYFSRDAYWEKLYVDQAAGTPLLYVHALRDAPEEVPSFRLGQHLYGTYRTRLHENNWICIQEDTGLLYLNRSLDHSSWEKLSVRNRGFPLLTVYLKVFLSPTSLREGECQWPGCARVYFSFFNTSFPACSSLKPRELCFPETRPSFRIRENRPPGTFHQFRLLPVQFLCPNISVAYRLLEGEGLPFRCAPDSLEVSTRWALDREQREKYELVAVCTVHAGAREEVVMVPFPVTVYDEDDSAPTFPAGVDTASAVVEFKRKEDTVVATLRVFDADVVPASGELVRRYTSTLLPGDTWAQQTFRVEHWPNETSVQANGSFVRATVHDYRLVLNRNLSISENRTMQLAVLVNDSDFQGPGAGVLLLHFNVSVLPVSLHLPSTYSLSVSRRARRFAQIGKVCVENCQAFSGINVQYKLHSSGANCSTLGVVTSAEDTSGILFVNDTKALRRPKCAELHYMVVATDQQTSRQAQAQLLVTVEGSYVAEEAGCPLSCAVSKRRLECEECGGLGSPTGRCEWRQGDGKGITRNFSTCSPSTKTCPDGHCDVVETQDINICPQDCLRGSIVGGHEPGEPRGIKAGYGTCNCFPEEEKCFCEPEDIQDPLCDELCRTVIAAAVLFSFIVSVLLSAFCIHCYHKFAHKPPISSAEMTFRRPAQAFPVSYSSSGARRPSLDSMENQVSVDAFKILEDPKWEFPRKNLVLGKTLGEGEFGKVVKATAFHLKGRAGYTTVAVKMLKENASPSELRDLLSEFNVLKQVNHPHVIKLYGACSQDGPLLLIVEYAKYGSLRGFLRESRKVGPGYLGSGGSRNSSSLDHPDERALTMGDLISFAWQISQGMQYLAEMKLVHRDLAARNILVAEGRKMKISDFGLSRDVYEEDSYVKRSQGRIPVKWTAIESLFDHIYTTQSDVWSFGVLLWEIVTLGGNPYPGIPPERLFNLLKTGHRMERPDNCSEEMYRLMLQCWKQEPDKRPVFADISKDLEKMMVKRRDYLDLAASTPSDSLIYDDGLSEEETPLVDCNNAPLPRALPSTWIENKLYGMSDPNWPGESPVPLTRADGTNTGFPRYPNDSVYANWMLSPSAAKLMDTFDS
Chain of panel of 468 diverse kinases (Homo sapiens, UniProt P07947) (P07947 2-543 limits assumed): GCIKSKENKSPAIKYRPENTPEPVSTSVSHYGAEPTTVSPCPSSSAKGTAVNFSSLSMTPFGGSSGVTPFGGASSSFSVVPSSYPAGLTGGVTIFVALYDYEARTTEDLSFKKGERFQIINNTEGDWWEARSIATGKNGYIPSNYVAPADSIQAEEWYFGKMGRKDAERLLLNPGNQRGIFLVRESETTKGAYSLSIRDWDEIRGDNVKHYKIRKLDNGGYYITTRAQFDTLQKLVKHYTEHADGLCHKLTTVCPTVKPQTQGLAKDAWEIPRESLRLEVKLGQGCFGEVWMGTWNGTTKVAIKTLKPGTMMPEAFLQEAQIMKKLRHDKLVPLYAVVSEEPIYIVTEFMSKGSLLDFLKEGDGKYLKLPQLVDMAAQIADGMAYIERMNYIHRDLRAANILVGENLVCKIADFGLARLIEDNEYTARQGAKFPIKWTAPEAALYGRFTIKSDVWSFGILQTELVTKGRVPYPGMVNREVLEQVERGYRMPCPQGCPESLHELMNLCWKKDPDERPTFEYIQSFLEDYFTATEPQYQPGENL
Chain of panel of 468 diverse kinases (Homo sapiens, UniProt P10721, T670I/V559D) (P10721 26-976 V559D/T670I limits assumed): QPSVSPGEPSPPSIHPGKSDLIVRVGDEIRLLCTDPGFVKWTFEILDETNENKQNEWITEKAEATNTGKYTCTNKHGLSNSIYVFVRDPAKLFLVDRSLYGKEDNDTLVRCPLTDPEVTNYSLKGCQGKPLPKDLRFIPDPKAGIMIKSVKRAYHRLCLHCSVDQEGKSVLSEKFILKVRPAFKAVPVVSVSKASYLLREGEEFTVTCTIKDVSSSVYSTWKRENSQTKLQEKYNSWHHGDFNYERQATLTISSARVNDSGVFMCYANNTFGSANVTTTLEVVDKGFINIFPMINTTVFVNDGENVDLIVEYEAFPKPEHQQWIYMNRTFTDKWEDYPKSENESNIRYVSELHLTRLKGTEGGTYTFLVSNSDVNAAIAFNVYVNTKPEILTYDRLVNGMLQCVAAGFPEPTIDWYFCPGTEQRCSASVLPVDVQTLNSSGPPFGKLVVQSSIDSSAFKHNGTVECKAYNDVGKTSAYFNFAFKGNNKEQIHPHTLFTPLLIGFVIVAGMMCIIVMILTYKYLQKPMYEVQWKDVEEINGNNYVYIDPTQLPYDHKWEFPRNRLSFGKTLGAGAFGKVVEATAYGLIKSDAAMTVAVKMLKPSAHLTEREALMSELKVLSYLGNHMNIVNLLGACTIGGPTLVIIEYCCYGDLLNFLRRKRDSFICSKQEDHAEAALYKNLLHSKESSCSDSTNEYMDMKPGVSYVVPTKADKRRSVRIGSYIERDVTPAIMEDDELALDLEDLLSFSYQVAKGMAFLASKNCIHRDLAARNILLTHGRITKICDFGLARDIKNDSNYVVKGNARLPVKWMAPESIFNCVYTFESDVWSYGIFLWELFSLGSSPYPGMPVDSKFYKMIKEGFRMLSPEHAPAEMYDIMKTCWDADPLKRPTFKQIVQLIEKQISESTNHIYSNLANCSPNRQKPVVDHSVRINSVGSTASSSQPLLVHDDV
Chain of panel of 468 diverse kinases (Homo sapiens, UniProt P19525) (P19525 2-551 limits assumed): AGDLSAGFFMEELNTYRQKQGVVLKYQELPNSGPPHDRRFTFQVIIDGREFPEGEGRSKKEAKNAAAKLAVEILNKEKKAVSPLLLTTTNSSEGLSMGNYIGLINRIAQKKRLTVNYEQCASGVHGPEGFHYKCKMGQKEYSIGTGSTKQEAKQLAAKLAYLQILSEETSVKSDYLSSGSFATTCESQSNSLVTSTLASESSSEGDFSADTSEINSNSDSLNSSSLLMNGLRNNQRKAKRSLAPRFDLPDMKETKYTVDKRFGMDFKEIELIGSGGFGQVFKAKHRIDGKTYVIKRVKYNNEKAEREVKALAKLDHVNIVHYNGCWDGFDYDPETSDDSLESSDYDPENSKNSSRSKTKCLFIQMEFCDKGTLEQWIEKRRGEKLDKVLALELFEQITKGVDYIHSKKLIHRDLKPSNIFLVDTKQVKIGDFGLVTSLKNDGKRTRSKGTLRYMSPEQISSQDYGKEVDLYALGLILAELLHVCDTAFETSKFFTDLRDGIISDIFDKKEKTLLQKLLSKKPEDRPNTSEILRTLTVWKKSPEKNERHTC

COc1cc2nc(NC3CC3)nc(NC3CCN(C(C)C)CC3)c2cc1OC [Formula IV]
remaining activity at 1 µM [1]: 87% | remaining activity at 1 µM [2]: 98% | remaining activity at 1 µM [3]: 52% | remaining activity at 1 µM [4]: 79% | remaining activity at 1 µM [5]: 98% | remaining activity at 1 µM [6]: 63% | remaining activity at 1 µM [7]: 100% | remaining activity at 1 µM [8]: 75% | remaining activity at 1 µM [9]: 100% | remaining activity at 1 µM [10]: 100% | remaining activity at 1 µM [11]: 85% | remaining activity at 1 µM [12]: 86% | remaining activity at 1 µM [13]: 99% | remaining activity at 1 µM [14]: 94% | remaining activity at 1 µM [15]: 91% | remaining activity at 1 µM [16]: 94% | remaining activity at 1 µM [17]: 97% | remaining activity at 1 µM [18]: 66% | remaining activity at 1 µM [19]: 98% | remaining activity at 1 µM [20]: 69% | remaining activity at 1 µM [21]: 100% | remaining activity at 1 µM [22]: 86% | remaining activity at 1 µM [23]: 60% | remaining activity at 1 µM [24]: 51% | remaining activity at 1 µM [25]: 94% | remaining activity at 1 µM [26]: 70% | remaining activity at 1 µM [27]: 92% | remaining activity at 1 µM [28]: 92% | remaining activity at 1 µM [29]: 96% | remaining activity at 1 µM [30]: 44% | remaining activity at 1 µM [31]: 62%
